Measurements published in patent US20130287721A1, “METHOD FOR COUNTERACTING AMMONIA MALODOR” (Firmenich SA, priority 2010, published 2013).

Tested on: ammonia lateralization threshold
Experiment: Panel evaluation of the lateralization threshold (LT) of ammonia alone and in combination with a PRM
Type: in vivo, panellists
Set-up: LT of ammonia Panellist 1 Cond II / LT of ammonia Panellist 2 Cond II / LT of ammonia Panellist 3 Cond II: unit not given here
Settings: for LT of ammonia Panellist 1 Cond II / LT of ammonia Panellist 2 Cond II / LT of ammonia Panellist 3 Cond II / LT of ammonia Panellist 1 %Δ / LT of ammonia Panellist 2 %Δ / LT of ammonia Panellist 3 %Δ: Table 4; for LT of ammonia Panellist 1 Cond II / LT of ammonia Panellist 2 Cond II / LT of ammonia Panellist 3 Cond II: ammonia stimulus combined with PRM stimulus; for LT of ammonia Panellist 1 %Δ / LT of ammonia Panellist 2 %Δ / LT of ammonia Panellist 3 %Δ / Ammonia LT Panellist 1 % Δ / Ammonia LT Panellist 2 % Δ / Ammonia LT Panellist 3 % Δ: change of ammonia LT, Cond II (with PRM) vs Cond I (ammonia alone); for Ammonia LT Panellist 1 Cond II / Ammonia LT Panellist 2 Cond II / Ammonia LT Panellist 3 Cond II / Ammonia LT Panellist 1 % Δ / Ammonia LT Panellist 2 % Δ / Ammonia LT Panellist 3 % Δ: Table 3; for Ammonia LT Panellist 1 Cond II / Ammonia LT Panellist 2 Cond II / Ammonia LT Panellist 3 Cond II: ammonia stimulus combined with PRM stimulus (concentration of Table 2 in propylene glycol)
Protocol: An ammonia stimulus test range was prepared. To ensure a stable level of ammonia in each stimulus, the ammonia headspace was stabilized by combining appropriate concentrations of NH4Cl, NaOH and H2O instead of simply adding ammonia directly to a solvent. Different concentrations of ammonia were used to create a stimulus test range by utilizing the appropriate amount of each compound (see Table 1).
A stimulus was also prepared for each PRM which was intended to be combined with ammonia stimuli. As the PRMs differed in their potency and to ensure that each PRM stimulus had approximately the same potency, an abbreviated dose response curve was constructed for each PRM by having four panellists evaluate the intensity of five concentration levels of the PRM dissolved in propylene glycol in duplicate. Assessments were made relative to the reference of 170 ppm allyl heptanoate in propylene glycol, which intensity was set to 0. Based upon the average scores, a rough intensity match was made for each PRM utilizing one of the following criteria. If one of the tested concentration levels averaged at or near zero, this concentration level was selected. If the rating created any sort of reasonable curve, the equation of the curve was determined and solved for 0 to arrive at the PRM assessment level. If multiple concentration levels were equally distant form the match level, then the standard deviation across individuals was considered, as were the individual responses. In general, the PRM level was selected to be on average close to 0 with low variability, with two panellists saying the level was a bit too high and the other two panellists saying the level was a bit too low. The PRMs for which a stimulus was prepared are listed in Table 2 below, together with the concentration of the PRM in the stimulus.
Volunteers were screened for their ability to lateralize ammonia stimuli. For the screening, the experimenter measured the participant's lateralization threshold for ammonia using a two-alternative forced choice modified staircase procedure employing a four-in, two-down, one-up rule with a five reversal criterion, as described below, On each trial volunteers were presented with a pair of glass bottles with clean, custom-made nose pieces. One bottle contained ammonia at a particular level selected from Table 1 and the other bottle contained water only. Each bottle was applied to one nostril using the nose piece. The volunteers were asked to identify which bottle in each pair contained ammonia.
If the ammonia stimulus was correctly identified in four consecutive trials, the concentration was decreased by one level of Table 1 on the next trial. If an incorrect answer was provided, the concentration was increased by one level of Table 1. Location (left or right nostril) of the stimulus was randomized over presentations. Testing continued until one of the following occurred: • 1) Five reversals (correct decision followed by an incorrect decision or vice versa) were achieved; • 2) The volunteer gave a correct response twice in a row at the lowest level of Table 1; or • 3) The volunteer gave an incorrect response at the highest level of Table 1.
In the first circumstance, threshold values were then calculated by averaging the last four reversals. In the second circumstance, the LT was the lowest level. In the third circumstance, the LT could not be calculated. Volunteers were considered qualified to participate in the panel evaluation if their LT could be calculated (Circumstance 1).
The LT of ammonia, both alone and in combination with diverse PRM, was determined. A repeated-measures design was used, such that the LT with and without the addition of a PRM were both measured at the same time in one person by utilizing interwoven stimuli presentations. The LT for each PRM was measured by two to three panellists, the third panellists being included if the results of the first to panellists disagreed. […]

Row | Compound | LT of ammonia Panellist 1 Cond II | LT of ammonia Panellist 2 Cond II | LT of ammonia Panellist 3 Cond II | LT of ammonia Panellist 1 %Δ [%] | LT of ammonia Panellist 2 %Δ [%] | LT of ammonia Panellist 3 %Δ [%] | Ammonia LT Panellist 1 Cond II [ppm] | Ammonia LT Panellist 2 Cond II [ppm] | Ammonia LT Panellist 3 Cond II [ppm] | Ammonia LT Panellist 1 % Δ [%] | Ammonia LT Panellist 2 % Δ [%] | Ammonia LT Panellist 3 % Δ [%]
1 | CCCc1ccc2c(c1)OCC(=O)CO2 [7-Propyl-2H,4H-1,5-benzodioxepin-3-one] | 11.1 | 6.3 | 3.5 | 456 | 453 | 212 |  |  |  |  |  | 
2 | C[C@@H]1CC[C@H]2[C@H](C)C(=O)O[C@@H]2C1 [(+)-(3S,3AS,6R,7AR)-perhydro-3,6-dimethyl-benzo[B]furan-2-one] | 19.6 | 3.5 | 11.1 | 885 | 4929 | 1682 |  |  |  |  |  | 
3 | CC/C=C\CCO [(Z)-3-hexen-1-ol] |  |  |  |  |  |  | 2.3 | 225.5 | 56.3 | −68 | 0 | 671
4 | CCC/C(C)=C\COC(C)=O [Aladinate ®, (Z)-3-methyl-2-hexenyl acetate] |  |  |  |  |  |  | 19.1 | 71.9 |  | −16 | 0 | 
5 | C=CCOC(=O)CCCCCC [Allyl heptanoate] |  |  |  |  |  |  | 71.9 | 225.5 |  | 28 | 20 | 
6 | CC(C)=CCC[C@](C)(O)[C@@H]1CC=C(C)CC1 [Alpha-bisabolol] |  |  |  |  |  |  | 7.3 | 172.7 |  | 213 | 655 | 
7 | CC(OC=O)C1CCCC(C)(C)C1 (stereo not shown) [Aphermate] |  |  |  |  |  |  | 6.1 | 71.9 |  | −68 | −59 | 
8 | CCCC(C)C(=O)OCC (stereo not shown) [Applinate ®, Ethyl 2-methyl-pentanoate] |  |  |  |  |  |  | 2.3 | 55.1 |  | −62 | −23 | 
9 | CC=CC(=O)C1=C(C)CCCC1(C)C [Beta Dorinone ®, 1-(2,6,6-trimethyl-1-cyclohexen-1-yl)-2-buten-1-one] | 11.1 | 19.6 | 2.0 | 214 | 885 | 1558 |  |  |  |  |  | 
10 | CCCCOC(C)=O [Butyl acetate] |  |  |  |  |  |  | 7.3 | 225.5 |  | 213 | 1079 | 
11 | C=C(C)C1CC=C(C)C(=O)C1 (stereo not shown) [Carvone] |  |  |  |  |  |  | 19.1 | 225.5 |  | 214 | 214 | 
12 | CC1(C)CCCC2(C)C1CCC1(C)OCCC12 (stereo not shown) [Cetalox ®, Dodecahydro-3a,6,6,9a-tetramethyl-naphtho[2,1-b]furan] |  |  |  |  |  |  | 2.3 | 225.5 | 2.3 | −90 | 2988 | −68
13 | CC(C)=CCCC(C)CCO (stereo not shown) [Citronellol] |  |  |  |  |  |  | 60.0 | 225.5 |  | 2978 | 20 | 
14 | COc1cc(C)ccc1O [Creosol H] |  |  |  |  |  |  | 17.9 | 7.3 |  | −68 | −90 | 
15 | C=CCOC(=O)COC1CCCCC1 [Cyclogalbanate, Allyl (cyclohexyloxy)-acetate] | 2.0 | 6.3 | 3.5 | 216 | 453 | 212 |  |  |  |  |  | 
16 | C/C=C/C(=O)C1C(C)C=CCC1(C)C (stereo not shown) [Delta damascone ®, Delta damascone] |  |  |  |  |  |  | 7.3 | 225.5 | 7.3 | −68 | 214 | −96
17 | CCCc1ccc(OC)cc1 [Dihydroestragole] |  |  |  |  |  |  | 7.3 | 71.9 | 22.9 | −62 | 28 | 214
18 | CCOC(=O)C1=C(C)C=CCC1(C)C [Ethyl 2,6,6-trimethyl-1,3-cyclohexadiene-1-carboxylate] | 0.6 | 0.6 | 0.2 | 786 | 215 | 200 |  |  |  |  |  | 
19 | CCOC(=O)C(C)CC (stereo not shown) [Ethyl 2-methylbutanoate] | 19.6 | 11.1 | 11.1 | 214 | 213 | 77 |  |  |  |  |  | 
20 | CCOC(=O)C(=O)C(C)CC (stereo not shown) [Ethyl 3-methyl-2-oxopentanoate] | 0.6 | 0.6 | 0.6 | 417 | 786 | 210 |  |  |  |  |  | 
21 | CCC=CCC=C/C=C/C(=O)OCC [Ethyl (2E)-2,4,7-decatrienoate] | 1.1 | 2.0 | 2.0 | 223 | 469 | 2743 |  |  |  |  |  | 
22 | O=C1CCCCCCCCCCCCCCO1 [Exaltolide ®, Pentadecanolide] |  |  |  |  |  |  | 6.1 | 71.9 |  | 213 | 214 | 
